Assay results: PubChem BioAssay AID179 (DTP/NCI, 2004)
Calls of active or inactive are those of the source.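 How the source made its calls: active means compounds giving half or more protection of infected cells from virus-caused growth loss, again on retest; inactive means the rest.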

System: CEM cells HIV-1 protection, formazan growth assay
Experiment: NCI AIDS Antiviral Assay
Details: for IC50: measured here: growth of uninfected CEM cells
In short: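 Human CEM cells, uninfected and HIV-1-infected, received five drug concentrations, and growth was read by soluble formazan assay. Compounds giving at least 50% protection were retested; reproducible 100% protection defined confirmed active.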

| SMILES | EC50 [µM] | IC50 [µM] | outcome |
| --- | --- | --- | --- |
| C#CCN(C(=O)C(F)(F)F)c1ccc(C(=O)c2ccc(N(CC#C)C(=O)C(F)(F)F)cc2)cc1 | > 28.2 | > 28.2 |  |
| O=C(/C=C\c1ccccc1)c1ccc(-c2ccc([N+](=O)[O-])cc2)cc1 |  |  | inactive |
| O=c1[nH][nH]c(=O)c2nc(Nc3ccc(Cl)cc3)ncc12 | > 34.7 | > 34.7 |  |
| N#CC(/C(=N/NC(N)=S)C(=O)Nc1cccc(Cl)c1)c1ccccc1 (stereo not drawn) | > 19.5 | 10.5 |  |
| Cc1ccc(S(=O)(=O)N2CCCC2C(=O)NNC(N)=S)cc1 (stereo not drawn) | > 200 | 117 |  |
| N=c1c2ccccc2nc2oc3ccccc3n12 | > 200 | > 200 |  |
| COC(=O)NC(Nc1ccc(C)cc1)(C(F)(F)F)C(F)(F)F |  |  | inactive |
| OCCN(CCO)c1ccc2c(C(F)(F)F)cc(C(F)(F)F)nc2n1 | > 200 | 148 |  |
| COc1ccc(CCNC(=S)/N=C\C2=C(O)c3ccccc3C2=O)cc1OC | > 200 | > 200 |  |
| COc1ccc(CCN(C)CCCC(C#N)(c2ccc(OC)c(OC)c2)C(C)C)cc1OC (stereo not drawn) | > 200 | > 200 |  |
| CSc1nnc(SC)c2[nH]cnc12 | > 200 | > 200 |  |
| S=C(N/N=C(/c1ccccc1)c1ccccn1)Nc1cccc(Cl)c1 | > 0.2 | 0.0891 |  |
| COCC(C)(C)N=CN1Cc2cc3ccccc3nc2C1 | > 178 | > 178 |  |
| CCCCS(=N)(=O)CCC(N)P(=O)(O)O (stereo not drawn) | > 200 | > 200 |  |
| CSc1c(S(C)=O)[nH]c2cc(Br)cc(Br)c12 (stereo not drawn) |  |  | inactive |
| CC(C)CCC[C@@H](C)C1CCC2[C@@H]3CCC4C[C@@H](NS(C)(=O)=O)CC[C@]4(C)C3CC[C@@]21C (stereo partly drawn) | > 200 | > 200 |  |
| C[C@]12C=CC(=O)C=C1CC[C@H]1[C@@H]3C[C@@H](O)[C@](O)(C(=O)CO)[C@@]3(C)C[C@H](O)[C@@]12F |  |  | inactive |
| O=C(NC/C(Cl)=C/Cl)Nc1cccc2c1CCCC2 | > 200 | 50.1 |  |
| C[C@@H]([C@H]1CC[C@@]2(C)[C@@H]3CC[C@@H]4C(=CC3=CC[C@]12C)CC[C@H](N(C)C)C4(C)C)N(C)C | > 200 | > 200 |  |
| [N-]=[N+]=Nc1ncnc2c1sc(=S)n2-c1ccccc1 | > 91.2 | > 91.2 |  |
| C=CCOc1ccc(Sc2c(O)cc(-c3ccccc3)oc2=O)c(C(C)(C)C)c1 | > 200 | 31.6 |  |

| SMILES | EC50 [µM] | IC50 [µM] | outcome |
| --- | --- | --- | --- |
| CCC(c1nc2ccccc2c(=O)n1NC(=O)C(C)(C)C)C1(O)CCCCC1 (stereo not drawn) | > 200 | 107 |  |
| CCOC(=O)CCC(NC(=O)c1ccc(Nc2nc3ccc(C(F)(F)F)cc3nc2-c2ccccc2)cc1)C(=O)OCC (stereo not drawn) | > 200 | 141 |  |
| Cc1occc1C(=S)Nc1ccc(Cl)c(/C=N/OC(C)C)c1 | 0.0263 | 18.2 |  |
| CNC(=O)Oc1cccc(CN(C)C)c1 | > 200 | > 200 |  |
| NC(CSS(=O)(=O)O)=NCCc1ccccn1 | > 200 | > 200 |  |
| CN(Cc1ccccc1)C(=NC#N)N(C)Cc1ccccc1 | > 170 | 129 |  |
| [N-]=[N+]=NC1CC(n2cc(Cc3ccccc3)c(N)nc2=O)OC1CO (stereo not drawn) | > 724 | > 724 |  |
| O=[N+]([O-])c1cc(Cl)cc2cc(Cl)cnc12 | > 200 | > 200 |  |
| Cn1cc2ccccc2c1-c1nc(F)nc(Oc2ccc3c(c2)CC[C@@H]2C3CC[C@]3(C)C(O)CCC23)n1 (stereo partly drawn) | > 5.5 | > 5.5 |  |
| CN(C)c1ccc(C(c2c(O)c3ccccc3oc2=O)c2c(O)c3ccccc3oc2=O)cc1 | > 200 | 27.5 |  |
| O=C(/N=C/c1c(O)c2ccccc2oc1=O)Oc1ccccc1 | > 100 | 33.1 |  |
| O=c1[nH]nc(-c2ccccc2)n1/N=C/c1c(O)ccc2ccccc12 | > 200 | 112 |  |
| CC(C)NC(=O)OCCN=C1c2ccccc2C(Br)C(Br)c2ccccc21 (stereo not drawn) | > 200 | 0.575 |  |
| CC1CC(=O)C(CC(=O)O)[C@H]1C(C(=O)C(=O)Nc1cc(Cl)ccc1Cl)[N+](=O)[O-] (stereo partly drawn) |  |  | inactive |
| C#CCN(N=O)C(=O)ON1C(=O)CCC1=O | > 1120 | 537 |  |
| NC(=S)N/N=C1\CCCCC1C(O)(C(F)(F)Cl)C(F)(F)Cl (stereo not drawn) | > 200 | > 200 |  |
| CCOC(=O)/C=C/c1ccc(Br)cc1 | > 28.2 | > 28.2 |  |
| CN(c1ccc(C(=O)c2ccc(N(C)S(C)(=O)=O)cc2)cc1)S(C)(=O)=O | > 25.1 | > 25.1 |  |
| CO[C@@H]1CCC=C(C=O)O1 |  |  | inactive |
| O=C1C(Cl)N(c2ccccc2[N+](=O)[O-])C1c1c[nH]c2ccccc12 (stereo not drawn) | > 275 | 132 |  |
| CCOP(=O)(OCC)/C(=C/n1c(=S)[nH]c2ccc([N+](=O)[O-])cc21)C(=O)OC | > 200 | 115 |  |
